These results are taken from patent US9278978B2, “6-Alkynyl Pyridine” (Boehringer Ingelheim International GmbH, priority 2013, dated 2016).

The target in this test is cIAP1 BIR3 (Homo sapiens (Human), UniProt Q13490). In words: cIAP1 BIR3 binding assay (DELFIA), BIR3 domain-SMAC peptide interaction. The conditions noted are these: BIR3 domain 10 nM, SMAC peptide 10 nM; (S)-isomer (examples 1-34, 38-43) or racemate (examples 35-37); read-out: cIAP1 BIR-3 IC50. The protocol:
XIAP BIR3 and cIAP1 BIR3 Binding Assays (DELFIA)
Peptide […]-Lys(Biotin), representing the N-terminus of mature human SMAC(SMAC peptide), was used as interaction partner in the protein-peptide interaction assay.
BIR3 domains (10 nM) were incubated with SMAC peptide (10 nM) in assay buffer (50 mM Tris, 120 mM NaCl, 0.1% BSA, 1 mM DTT, 0.05% TritonX100) for one hour at room temperature in the presence of inhibitory compounds. The assay mixture was transferred to a strepatvidin coated plate and incubated for one hour at room temperature to allow binding of the biotinylated peptide and associated BIR3 domains to the plate. After several washing steps Eu labeled anti-GST antibody (e.g. Perkin Elmer DELFIA Eu-N1-antiGST AD0250) was added to detect BIR3 domain-SMAC peptide interactions according to Perkin Elmer's instructions. […] Time resolved Europium fluorescence was measured in a Wallac Victor using Standard assay settings.
DELFIA assay results were plotted against compound concentrations and Software GraphPad Prizm was used to calculate half maximal inhibitory concentrations (IC50 values).

In the case of `CNC(C)C(=O)Nc1cc(-c2ccc(C(F)(F)F)nc2)cc(C#Cc2ccccc2)n1` (stereo not shown) [Example 30, 2-(methylamino)-N-[6-(2-phenylethynyl)-4-[6-(trifluoromethyl)pyridin-3-yl]pyridin-2-yl]propanamide], the IC50 stood at 352 nM.

Regarding `CNC(C)C(=O)Nc1cc(-c2ccc(OC)nc2)cc(C#Cc2ccccc2)n1` (stereo not shown) [Example 31, N-[4-(6-methoxypyridin-3-yl)-6-(2-phenylethynyl)pyridin-2-yl]-2-(methylamino)propanamide], the IC50 stood at 325 nM.

On to `CNC(C)C(=O)Nc1cc(-c2ccccc2F)cc(C#Cc2ccccc2)n1` (stereo not shown) [Example 32, N-[4-(2-fluorophenyl)-6-(2-phenylethynyl)pyridin-2-yl]-2-(methylamino)propanamide], for which the IC50 worked out at 4010 nM.

In the case of `CNC(C)C(=O)Nc1cc(-c2cccnc2)cc(C#Cc2ccccc2)n1` (stereo not shown) [Example 34, 2-(methylamino)-N-[6-(2-phenyethynyl)-4-(pyridin-3-yl)pyridin-2-yl]propanamide], the IC50 amounted to 250 nM.

Take `CNC(C)C(=O)Nc1cc(-c2ncnc3c(C)nn(C)c23)cc(C#Cc2ccc3nc(C)ccc3c2)n1` (stereo not shown) [Example 38, N-(4-{1,3-dimethyl-1H-pyrazolo[4,3-d]pyrimidin-7-yl}-6-[2-(2-methylquinolin-6-yl)ethynyl]pyridin-2-yl)-2-(methylamino)propanamide]: the IC50 is 1 nM.

Consider `CNC(C)C(=O)Nc1cc(-c2ncnc3c(C)nn(C)c23)cc(C#Cc2cc(C)nc(C)c2)n1` (stereo not shown) [Example 39, N-(4-{1,3-dimethyl-1H-pyrazolo[4,3-d]pyrimidin-7-yl}-6-[2-(2,6-dimethyl-pyridin-4-yl)ethynyl]pyridin-2-yl)-2-(methylamino)-propanamide], for which the IC50 was 1 nM.

For the compound `CNC(C)C(=O)Nc1cc(-c2ncnc3c(C)nn(C)c23)cc(C#Cc2cc(F)cc(F)c2)n1` (stereo not shown) [Example 40, N-{6-[2-(3,5-difluorophenyl)ethynyl]-4-{1,3-dimethyl-1H-pyrazolo[4,3-d]pyrimidin-7-yl}pyridin-2-yl}-2-(methyl-amino)propanamide], the IC50 worked out at 1 nM.

Consider `CNC(C)C(=O)Nc1cc(-c2ncnc3c(C)nn(C)c23)cc(C#Cc2ccc(-n3cnc(C)c3)cc2)n1` (stereo not shown) [Example 41, N-(4-{1,3-dimethyl-1H-pyrazolo[4,3-d]pyrimidin-7-yl}-6-{2-[4-(4-methyl-1H-imidazol-1-yl)phenyl]-ethynyl}pyridin-2-yl)-2-(methylamino)propanamide], for which the IC50 worked out at 1 nM.

With `CNC(C)C(=O)Nc1cc(-c2ncnc3c(C)nn(C)c23)cc(C#Cc2cc(F)c3ncccc3c2)n1` (stereo not shown) [Example 42, N-(4-{1,3-dimethyl-1H-pyrazolo[4,3-d]pyrimidin-7-yl}-6-[2-(8-fluoroquinolin-6-yl)ethynyl]pyridin-2-yl)-2-(methylamino)propanamide], the half-maximal inhibitory concentration (IC50) is 1 nM.

`CNC(C)C(=O)Nc1cc(-c2ncnc3c(C)nn(C)c23)cc(C#Cc2cnc3c(cnn3C)c2)n1` (stereo not shown) [Example 43, N-(4-{1,3-dimethyl-1H-pyrazolo[4,3-d]pyrimidin-7-yl}-6-(2-{1-methyl-1H-pyrazolo[3,4-b]pyridin-5-yl}ethynyl)pyridin-2-yl)-2-(methylamino)propanamide]: the IC50 turned out to be 1 nM.
